Values of other authors, collected in US9198430B2, “Anti-parasitic composition comprising a macrocyclic lactone and levamisole and method of treatment of parasitic infestation” (BAYER NEW ZEALAND LIMITED, priority 2011, dated 2015).
Like-named read-outs stand apart in the source and are kept apart here.

Settings: unlabelled doramectin 0.2 mg/kg bodyweight

Residues of Doramectin, Fat (Day 21): 182 µg/kg
Residues of Doramectin, Injection (site) (Day 21): 1900 µg/kg
Residues of Doramectin, Kidney (Day 21): 11 µg/kg
Residues of Doramectin, Liver (Day 21): 107 µg/kg
Residues of Doramectin, Muscle (Day 21): <7 µg/kg
Residues of Doramectin, Fat (Day 28): 94 µg/kg
Residues of Doramectin, Injection (site) (Day 28): 380 µg/kg
Residues of Doramectin, Kidney (Day 28): 8.8 µg/kg
Residues of Doramectin, Liver (Day 28): 66 µg/kg
Residues of Doramectin, Muscle (Day 28): <4 µg/kg
Residues of Doramectin, Fat (Day 35): 57 µg/kg
Residues of Doramectin, Injection (site) (Day 35): 930 µg/kg
Residues of Doramectin, Kidney (Day 35): <4.5 µg/kg
Residues of Doramectin, Liver (Day 35): 29 µg/kg
Residues of Doramectin, Muscle (Day 35): <3 µg/kg
Compound: CO[C@H]1C[C@H](O[C@H]2[C@H](C)O[C@@H](O[C@@H]3/C(C)=C/C[C@@H]4C[C@@H](C[C@]5(C=C[C@H](C)[C@@H](C6CCCCC6)O5)O4)OC(=O)[C@@H]4C=C(C)[C@@H](O)[C@H]5OC/C(=C\C=C\[C@@H]3C)[C@]54O)C[C@@H]2OC)O[C@@H](C)[C@@H]1O [doramectin, Doramectin]
